Data from PubChem BioAssay (NCI).
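How tested: cells in 96-well plates exposed to compound for 48 hours at five concentrations. TGI: concentration producing complete growth inhibition.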

Legend:
Test in all cases: inhibition of tumour cell growth, NCI panel, 48 h
SNB-19 CNS = test system: SNB-19 CNS
RXF 393 renal = test system: RXF 393 renal
SK-MEL-28 melanoma = test system: SK-MEL-28 melanoma
MDA-MB-435 = test system: MDA-MB-435
BT-549 breast = test system: BT-549 breast
MDA-N = test system: MDA-N
ACHN renal = test system: ACHN renal
UO-31 renal = test system: UO-31 renal
NCI-H460 lung = test system: NCI-H460 lung
IGROV1 ovarian = test system: IGROV1 ovarian
SN12C renal = test system: SN12C renal

| SMILES | TGI (SNB-19 CNS) | TGI (RXF 393 renal) | TGI (SK-MEL-28 melanoma) | TGI (MDA-MB-435) | TGI (BT-549 breast) | TGI (MDA-N) | TGI (ACHN renal) | TGI (UO-31 renal) | TGI (NCI-H460 lung) | TGI (IGROV1 ovarian) | TGI (SN12C renal) |
| --- | --- | --- | --- | --- | --- | --- | --- | --- | --- | --- | --- |
| C/C=C\C(CC(=O)NCC(=O)c1c[nH]c2ccccc12)CC(=O)OC (stereo not drawn) | > 100 µM | > 100 µM | > 100 µM | > 100 µM | > 100 µM | > 100 µM | > 100 µM | > 100 µM | > 100 µM | > 100 µM | – |
| CN1CCN(/C(N)=C(\C#N)C(=O)Nc2ccc(Cl)cc2)CC1 | > 100 µM | – | > 100 µM | > 100 µM | > 100 µM | > 100 µM | > 100 µM | > 100 µM | > 100 µM | > 100 µM | > 100 µM |
| O=C(Cn1c2ccc(Br)cc2c2nc3ccccc3nc21)NNC(=S)NC1CCCCC1 | 33.8 µM | 23.4 µM | 31.6 µM | 34.2 µM | 42.8 µM | 30.4 µM | 29.6 µM | 22.3 µM | 24.9 µM | 23.6 µM | 35.6 µM |
| O=C1CCSCCC(=O)Nc2ccccc2N1 | > 100 µM | > 100 µM | > 100 µM | > 100 µM | > 100 µM | > 100 µM | > 100 µM | > 100 µM | > 100 µM | > 100 µM | > 100 µM |
| CC(=O)OCC1OC(n2c(C)c(N=Nc3ccc(Cl)cc3)c(C)c(C#N)c2=S)C(OC(C)=O)C(OC(C)=O)C1OC(C)=O (stereo not drawn) | > 100 µM | 40.7 µM | > 100 µM | > 100 µM | 52.3 µM | > 100 µM | > 100 µM | > 100 µM | > 100 µM | > 100 µM | > 100 µM |
| O=C1C(Br)=CC2(C=C1Br)CCNC1=C2C(=O)c2ncccc2C1=O | 2.77 µM | 2.65 µM | 2.17 µM | 0.354 µM | 2.73 µM | 0.353 µM | 1.94 µM | 2.35 µM | 1.46 µM | 2.03 µM | 2.5 µM |
| NC1(CCNC(=O)c2ccccc2)CCN(C(=O)c2ccccc2)CC1 | > 100 µM | > 100 µM | – | > 100 µM | > 100 µM | > 100 µM | > 100 µM | > 100 µM | > 100 µM | > 100 µM | > 100 µM |
| Cn1nnnc1SC(F)(F)c1nc2ccccc2o1 | – | > 100 µM | > 100 µM | > 100 µM | > 100 µM | > 100 µM | > 100 µM | > 100 µM | > 100 µM | > 100 µM | > 100 µM |
| COc1cc(Nc2nc3cc(C(F)(F)F)ccc3nc2C(=O)O)cc(OC)c1OC | > 100 µM | 70.2 µM | > 100 µM | > 100 µM | > 100 µM | > 100 µM | > 100 µM | > 100 µM | > 100 µM | > 100 µM | > 100 µM |
| O=C1c2c(Br)sc(Br)c2C(=O)C1(O)O | > 100 µM | 37.6 µM | > 100 µM | 38.9 µM | 37.9 µM | > 100 µM | > 100 µM | 58.2 µM | > 100 µM | > 100 µM | > 100 µM |
| c1ccc2c3[nH]c(c2c1)=Nc1ccc(cc1)-c1nc2ccc(cc2o1)N=c1[nH]c(c2ccccc12)=Nc1ccc2nc(oc2c1)-c1ccc(cc1)N=3 | 81 µM | > 100 µM | > 100 µM | > 100 µM | > 100 µM | > 100 µM | 35.5 µM | 45.5 µM | 20.5 µM | > 100 µM | > 100 µM |
| Cc1ccc(C(=O)NCc2ccccc2)cc1N=NN(C)C | > 100 µM | – | > 100 µM | > 100 µM | > 100 µM | > 100 µM | > 100 µM | > 100 µM | > 100 µM | > 100 µM | > 100 µM |
| CCOc1cc(NC(C)=O)ccc1C(=O)NNS(=O)(=O)c1ccc(NC(C)=O)cc1 | > 100 µM | > 100 µM | > 100 µM | > 100 µM | > 100 µM | 39.2 µM | > 100 µM | > 100 µM | > 100 µM | > 100 µM | > 100 µM |
| CC1CC(Nc2ccc(Br)cc2)N(C(=O)c2ccc(Br)cc2)O1 (stereo not drawn) | > 10 µM | > 10 µM | > 10 µM | > 10 µM | > 10 µM | > 10 µM | > 10 µM | > 10 µM | > 10 µM | > 10 µM | > 10 µM |
| CCCCC1Cc2cc(O)ccc2-c2nc3cc(O)ccc3n21 (stereo not drawn) (tested in a mixture with another compound) | 26.3 µM | 35.6 µM | – | 26.1 µM | 41.6 µM | 36.3 µM | 33.7 µM | 28.5 µM | 32.9 µM | 28.9 µM | 36 µM |
| O=[N+]([O-])c1c(F)c(F)c2c(c1F)N(CCCCCl)c1ccccc1S2 | 19.5 µM | 27.4 µM | 10.9 µM | 20.2 µM | 28 µM | 28.9 µM | 30.4 µM | 30.5 µM | 9.91 µM | 5.36 µM | 20.2 µM |
| CC(NC(=O)c1c(O)[nH]c(=S)[nH]c1=O)c1ccc([N+](=O)[O-])cc1 (stereo not drawn) | > 100 µM | > 100 µM | > 100 µM | > 100 µM | > 100 µM | > 100 µM | > 100 µM | > 100 µM | > 100 µM | > 100 µM | > 100 µM |
| Cc1[nH]n(-c2nc(O)c(-c3ccccc3)c(=O)[nH]2)c(=O)c1CCO | > 100 µM | > 100 µM | > 100 µM | > 100 µM | > 100 µM | > 100 µM | > 100 µM | > 100 µM | > 100 µM | > 100 µM | > 100 µM |
| O=C1C=C(Nc2ccc(S(=O)(=O)Nc3nccs3)cc2)c2ccccc2C1=O | 86.3 µM | > 100 µM | 45.2 µM | 33.5 µM | 40.8 µM | 38.5 µM | 63.5 µM | > 100 µM | > 100 µM | > 100 µM | 47.2 µM |
